According to ChEMBL document CHEMBL3885861, “Open TG-GATES”:

Species: Rattus norvegicus
Test: Open TG-GATES - Regimen: Single
Format: toxicity, organism-based, Sprague-Dawley
Parameters: regimen Single, gender Male, age 6 weeks
Details: in vivo, po, 100 mg/kg, route gavage, dose level Middle; for APTT / Bas / Eos / Fbg / Hb / Ht / Lym / MCH / MCHC / MCV / Mono / Neu / PT / Plat / RBC / Ret / WBC: tissue Blood; for KIDNEY_L / KIDNEY_R / KIDNEY_TOTAL: tissue Kidney; for LIVER: tissue Liver; for A/G / ALP / ALT / AST / BUN / CRE / Ca / Cl / DBIL / GLC / IP / K / LDH / Na / PL / RALB / TBIL / TC / TG / TP / gamma-GTP: tissue Plasma

SMILES: NC(=O)N/N=C/c1ccc([N+](=O)[O-])o1 [NITROFURAZONE]
- TERMINAL_BW (3 h): 183.7 g
- APTT (3 h): 16.6 s
- Bas (3 h): 0.2%
- Eos (3 h): 1%
- Fbg (3 h): 235.8 mg/dL
- Hb (3 h): 12.4 g/dL
- Ht (3 h): 38.5%
- Lym (3 h): 73.4%
- MCH (3 h): 21.7 pg
- MCHC (3 h): 32.3%
- MCV (3 h): 67.2 fL
- Mono (3 h): 5.2%
- Neu (3 h): 19.6%
- PT (3 h): 14.8 s
- Plat (3 h): 123.7 x10_4/uL
- RBC (3 h): 572.4 x10_4/ul
- Ret (3 h): 11.4%
- WBC (3 h): 71.3 x10_2/uL
- KIDNEY_L (3 h): 0.8 g
- KIDNEY_R (3 h): 0.8 g
- KIDNEY_TOTAL (3 h): 1.6 g
- LIVER (3 h): 7.7 g
- A/G (3 h): 0.9
- ALP (3 h): 1361.8 IU/L
- ALT (3 h): 41.2 IU/L
- AST (3 h): 74.8 IU/L
- BUN (3 h): 11.8 mg/dL
- CRE (3 h): 0.2 mg/dL
- Ca (3 h): 11.3 mg/dL
- Cl (3 h): 104.8 meq/L
- DBIL (3 h): 0.006 mg/dL
- GLC (3 h): 177.6 mg/dL
- IP (3 h): 8.8 mg/dL
- K (3 h): 4.3 meq/L
- LDH (3 h): 51.6 IU/L
- Na (3 h): 140.8 meq/L
- PL (3 h): 127.6 mg/dL
- RALB (3 h): 2.4 g/dL
- TBIL (3 h): 0.06 mg/dL
- TC (3 h): 73.4 mg/dL
- TG (3 h): 29.8 mg/dL
- TP (3 h): 5.2 g/dL
- gamma-GTP (3 h): 1.2 IU/L
- TERMINAL_BW (6 h): 182.2 g
- APTT (6 h): 16 s
- Bas (6 h): 0%
- Eos (6 h): 1%
- Fbg (6 h): 272.8 mg/dL
- Hb (6 h): 12.8 g/dL
- Ht (6 h): 40%
- Lym (6 h): 71.2%
- MCH (6 h): 21.3 pg
- MCHC (6 h): 32%
- MCV (6 h): 66.4 fL
- Mono (6 h): 3.2%
- Neu (6 h): 23.8%
- PT (6 h): 14.6 s
- Plat (6 h): 112.7 x10_4/uL
- RBC (6 h): 602 x10_4/ul
- Ret (6 h): 10.1%
- WBC (6 h): 85.4 x10_2/uL
- KIDNEY_L (6 h): 0.8 g
- KIDNEY_R (6 h): 0.8 g
- KIDNEY_TOTAL (6 h): 1.7 g
- LIVER (6 h): 7.3 g
- A/G (6 h): 0.9
- ALP (6 h): 1451.4 IU/L
- ALT (6 h): 41.4 IU/L
- AST (6 h): 74 IU/L
- BUN (6 h): 8.6 mg/dL
- CRE (6 h): 0.2 mg/dL
- Ca (6 h): 11.3 mg/dL
- Cl (6 h): 105.2 meq/L
- DBIL (6 h): 0.01 mg/dL
- GLC (6 h): 162.4 mg/dL
- IP (6 h): 9.8 mg/dL
- K (6 h): 3.8 meq/L
- LDH (6 h): 85.8 IU/L
- Na (6 h): 142.4 meq/L
- PL (6 h): 146.6 mg/dL
- RALB (6 h): 2.4 g/dL
- TBIL (6 h): 0.072 mg/dL
- TC (6 h): 89.4 mg/dL
- TG (6 h): 25.8 mg/dL
- TP (6 h): 5.2 g/dL
- gamma-GTP (6 h): 1.2 IU/L
- TERMINAL_BW (9 h): 176.6 g
- APTT (9 h): 15.8 s
- Bas (9 h): 0%
- Eos (9 h): 1%
- Fbg (9 h): 270.8 mg/dL
- Hb (9 h): 13.5 g/dL
- Ht (9 h): 41.4%
- Lym (9 h): 72.5%
- MCH (9 h): 21.6 pg
- MCHC (9 h): 32.4%
- MCV (9 h): 66.6 fL
- Mono (9 h): 2.8%
- Neu (9 h): 22.8%
- PT (9 h): 14.8 s
- Plat (9 h): 103.9 x10_4/uL
- RBC (9 h): 622.2 x10_4/ul
- Ret (9 h): 10.2%
- WBC (9 h): 69.6 x10_2/uL
- KIDNEY_L (9 h): 0.8 g
- KIDNEY_R (9 h): 0.8 g
- KIDNEY_TOTAL (9 h): 1.6 g
- LIVER (9 h): 7.2 g
- A/G (9 h): 0.9
- ALP (9 h): 1273.8 IU/L
- ALT (9 h): 39 IU/L
- AST (9 h): 74.5 IU/L
- BUN (9 h): 9 mg/dL
- CRE (9 h): 0.2 mg/dL
- Ca (9 h): 10.9 mg/dL
- Cl (9 h): 104.5 meq/L
- DBIL (9 h): 0.0175 mg/dL
- GLC (9 h): 165 mg/dL
- IP (9 h): 11.4 mg/dL
- K (9 h): 4 meq/L
- LDH (9 h): 69.2 IU/L
- Na (9 h): 142.2 meq/L
- PL (9 h): 149.5 mg/dL
- RALB (9 h): 2.4 g/dL
- TBIL (9 h): 0.0675 mg/dL
- TC (9 h): 83.5 mg/dL
- TG (9 h): 38.8 mg/dL
- TP (9 h): 5.1 g/dL
- gamma-GTP (9 h): 1.2 IU/L
- TERMINAL_BW (24 h): 185.1 g
- APTT (24 h): 15.7 s
- Bas (24 h): 0%
- Eos (24 h): 0.6%
- Fbg (24 h): 296 mg/dL
- Hb (24 h): 13.1 g/dL
- Ht (24 h): 40.5%
- Lym (24 h): 83.4%
- MCH (24 h): 21.8 pg
- MCHC (24 h): 32.4%
- MCV (24 h): 67.2 fL
- Mono (24 h): 3%
- Neu (24 h): 12.2%
- PT (24 h): 14.8 s
- Plat (24 h): 109 x10_4/uL
- RBC (24 h): 602 x10_4/ul
- Ret (24 h): 9.3%
- WBC (24 h): 90.2 x10_2/uL
- KIDNEY_L (24 h): 0.8 g
- KIDNEY_R (24 h): 0.8 g
- KIDNEY_TOTAL (24 h): 1.7 g
- LIVER (24 h): 8.6 g
- A/G (24 h): 0.9
- ALP (24 h): 1441.6 IU/L
- ALT (24 h): 44.6 IU/L
- AST (24 h): 78.4 IU/L
- BUN (24 h): 14 mg/dL
- CRE (24 h): 0.2 mg/dL
- Ca (24 h): 11 mg/dL
- Cl (24 h): 103.6 meq/L
- DBIL (24 h): 0.016 mg/dL
- GLC (24 h): 168.8 mg/dL
- IP (24 h): 8.5 mg/dL
- K (24 h): 4 meq/L
- LDH (24 h): 71.6 IU/L
- Na (24 h): 140.6 meq/L
- PL (24 h): 140.6 mg/dL
- RALB (24 h): 2.5 g/dL
- TBIL (24 h): 0.058 mg/dL
- TC (24 h): 77.6 mg/dL
- TG (24 h): 73.8 mg/dL
- TP (24 h): 5.4 g/dL
- gamma-GTP (24 h): 1 IU/L
